Measurements published in publication PMC4554834 (Bioorganic & medicinal chemistry, 2015).

Target: T1, human OX1 receptors (Homo sapiens, UniProt O43613)
T1 sequence (O43613 1-425): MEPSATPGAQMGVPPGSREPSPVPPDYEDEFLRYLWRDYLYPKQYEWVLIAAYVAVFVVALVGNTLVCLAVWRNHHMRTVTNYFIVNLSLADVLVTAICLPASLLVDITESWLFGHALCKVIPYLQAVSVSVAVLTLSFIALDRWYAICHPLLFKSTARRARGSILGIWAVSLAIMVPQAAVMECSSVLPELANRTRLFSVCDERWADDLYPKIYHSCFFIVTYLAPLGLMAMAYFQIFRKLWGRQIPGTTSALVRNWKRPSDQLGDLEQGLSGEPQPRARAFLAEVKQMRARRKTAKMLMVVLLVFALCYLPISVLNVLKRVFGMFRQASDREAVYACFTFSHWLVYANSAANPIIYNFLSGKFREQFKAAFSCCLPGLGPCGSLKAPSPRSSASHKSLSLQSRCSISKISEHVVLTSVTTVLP
Test: Calcium mobilization Ke
Type: cell-based
Details: for OX1 potency (in words): qualitative statement

[1] = pre-incubation increased to 45 min and 60 min
[2] = simultaneous addition of antagonist and Orexin A

SMILES | Kb | further results
COc1ccc(CC2c3ccc(OCc4ccccc4)cc3CCN2CC(=O)NCc2ccccc2)cc1OC (stereo not shown) [17d, N-Benzyl-2-[6-(benzyloxy)-1-[(3,4-dimethoxyphenyl)methyl]-1,2,3,4-tetrahydroisoquinolin-2-yl]acetamide] | > 10000 nM | 
CCCOc1ccc2c(c1)CCN(CC(=O)NCc1ccccc1)C2Cc1ccc(OC)c(OC)c1 (stereo not shown) [17a, N-Benzyl-2-{1-[(3,4-dimethoxyphenyl)methyl]-6-propoxy-1,2,3,4-tetrahydroisoquinolin-2-yl}acetamide] | > 10000 nM | 
COc1ccc(CC2c3ccc(OCC(F)(F)F)cc3CCN2CC(=O)NCc2ccccc2)cc1OC (stereo not shown) [17b, N-Benzyl-2-{1-[(3,4-dimethoxyphenyl)methyl]-6-(2,2,2-trifluoroethoxy)-1,2,3,4-tetrahydroisoquinolin-2-yl}acetamide] | > 10000 nM | 
COc1ccc(CC2c3ccc(N(C)CC4CC4)cc3CCN2CC(=O)NCc2ccccc2)cc1OC (stereo not shown) [25g, N-Benzyl-2-{6-[(cyclopropylmethyl)(methyl)amino]-1-[(3,4-dimethoxyphenyl)methyl]-1,2,3,4-tetrahydroisoquinolin-2-yl}acetamide] | 1400 ± 240 nM | 
CCOC(=O)CCCOc1ccc2c(c1)CCN(CC(=O)NCc1ccccc1)C2Cc1ccc(OC)c(OC)c1 (stereo not shown) [17e, Ethyl 4-({2-[(benzylcarbamoyl)methyl]-1-[(3,4-dimethoxyphenyl)methyl]-1,2,3,4-tetrahydroisoquinolin-6-yl}oxy)butanoate] | 1000 ± 190 nM | mode of antagonism at OX1 (15 minute pre-incubation): insurmountable antagonism; mode of antagonism at OX1 [1]: competitive antagonists; mode of antagonism at OX1 [2]: competitive antagonists
COc1ccc(CC2c3ccc(NCC4CC4)cc3CCN2CC(=O)NCc2ccccc2)cc1OC (stereo not shown) [25f, N-Benzyl-2-{6-[(cyclopropylmethyl)amino]-1-[(3,4-dimethoxyphenyl)methyl]-1,2,3,4-tetrahydroisoquinolin-2-yl}acetamide] | > 10000 nM | 
COc1ccc(CC2c3ccc(NC(C)C)cc3CCN2CC(=O)NCc2ccccc2)cc1OC (stereo not shown) [25e, N-Benzyl-2-{1-[(3,4-dimethoxyphenyl)methyl]-6-[(propan-2-yl)amino]-1,2,3,4-tetrahydroisoquinolin-2-yl}acetamide] | > 10000 nM | 
COc1ccc(CC2c3ccc(N(C)C)cc3CCN2CC(=O)NCc2ccccc2)cc1OC (stereo not shown) [25a, N-Benzyl-2-{1-[(3,4-dimethoxyphenyl)methyl]-6-(dimethylamino)-1,2,3,4-tetrahydroisoquinolin-2-yl}acetamide] | 1370 ± 100 nM | 
CCCN(C)c1ccc2c(c1)CCN(CC(=O)NCc1ccccc1)C2Cc1ccc(OC)c(OC)c1 (stereo not shown) [25c, N-Benzyl-2-{1-[(3,4-dimethoxyphenyl)methyl]-6-[methyl(propyl)amino]-1,2,3,4-tetrahydroisoquinolin-2-yl}acetamide] | 619 ± 96 nM | 
CCCNc1ccc2c(c1)CCN(CC(=O)NCc1ccccc1)C2Cc1ccc(OC)c(OC)c1 (stereo not shown) [25b, N-Benzyl-2-{1-[(3,4-dimethoxyphenyl)methyl]-6-(propylamino)-1,2,3,4-tetrahydroisoquinolin-2-yl}acetamide] | > 10000 nM | 
CCCCOc1ccc2c(c1)C(Cc1ccc(OC)c(OC)c1)N(CC(=O)NCc1ccccc1)CC2 (stereo not shown) [10e, N-Benzyl-2-{7-butoxy-1-[(3,4-dimethoxyphenyl)methyl]-1,2,3,4-tetrahydroisoquinolin-2-yl}acetamide] | 230 ± 70 nM | 
CCCN(CCC)c1ccc2c(c1)CCN(CC(=O)NCc1ccccc1)C2Cc1ccc(OC)c(OC)c1 (stereo not shown) [25d, N-Benzyl-2-{1-[(3,4-dimethoxyphenyl)methyl]-6-(dipropylamino)-1,2,3,4-tetrahydroisoquinolin-2-yl}acetamide] | 2350 ± 490 nM | 
COc1ccc(CC2c3ccc(OC(C)C)cc3CCN2CC(=O)NCc2ccccc2)cc1OC (stereo not shown) [17c, N-Benzyl-2-{1-[(3,4-dimethoxyphenyl)methyl]-6-(propan-2-yloxy)-1,2,3,4-tetrahydroisoquinolin-2-yl}acetamide] | > 10000 nM | 
COc1ccc(CCNc2ccc3c(c2)CCN(CC(=O)NCc2ccccc2)C3Cc2ccc(OC)c(OC)c2)cc1OC (stereo not shown) [25j, N-Benzyl-2-(6-{[2-(3,4-dimethoxyphenyl)ethyl]amino}-1-[(3,4-dimethoxyphenyl)methyl]-1,2,3,4-tetrahydroisoquinolin-2-yl)acetamide] | 2180 ± 360 nM | mode of antagonism at OX1 (15 minute pre-incubation): insurmountable antagonism; mode of antagonism at OX1 [1]: competitive antagonists; mode of antagonism at OX1 [2]: competitive antagonists
COc1ccc(CC2c3ccc(NCc4ccccc4)cc3CCN2CC(=O)NCc2ccccc2)cc1OC (stereo not shown) [25h, N-Benzyl-2-[6-(benzylamino)-1-[(3,4-dimethoxyphenyl)methyl]-1,2,3,4-tetrahydroisoquinolin-2-yl]acetamide] | 1100 ± 290 nM | 
COc1ccc(CC2c3ccc(N(C)Cc4ccccc4)cc3CCN2CC(=O)NCc2ccccc2)cc1OC (stereo not shown) [25i, N-Benzyl-2-{6-[benzyl(methyl)amino]-1-[(3,4-dimethoxyphenyl)methyl]-1,2,3,4-tetrahydroisoquinolin-2-yl}acetamide] | > 10000 nM | 
CCOc1ccc2c(c1)C(Cc1ccc(OC)c(OC)c1)N(CC(=O)NCc1ccccc1)CC2 (stereo not shown) [10b, N-Benzyl-2-{1-[(3,4-dimethoxyphenyl)methyl]-7-ethoxy-1,2,3,4-tetrahydroisoquinolin-2-yl}acetamide] | 37.3 ± 7.8 nM | 

Now from value to molecule, other results behind:

Kb | SMILES | further results
809 ± 200 nM | CCOC(=O)CCNc1ccc2c(c1)CCN(CC(=O)NCc1ccccc1)C2Cc1ccc(OC)c(OC)c1 (stereo not shown) [26c, Ethyl 3-({2-[(benzylcarbamoyl)methyl]-1-[(3,4-dimethoxyphenyl)methyl]-1,2,3,4-tetrahydroisoquinolin-6-yl}amino)propanoate] | OX1 potency (in words): some activity
1270 ± 110 nM | COc1ccc(CC2c3ccc(NCc4cccnc4)cc3CCN2CC(=O)NCc2ccccc2)cc1OC (stereo not shown) [25n, N-Benzyl-2-{1-[(3,4-dimethoxyphenyl)methyl]-6-[(pyridin-3-ylmethyl)amino]-1,2,3,4-tetrahydroisoquinolin-2-yl}acetamide] | 
> 10000 nM | COc1ccc(CC2c3ccc(NC(C)=O)cc3CCN2CC(=O)NCc2ccccc2)cc1OC (stereo not shown) [28a, N-Benzyl-2-{1-[(3,4-dimethoxyphenyl)methyl]-6-acetamido-1,2,3,4-tetrahydroisoquinolin-2-yl}acetamide] | 
427 ± 69 nM | CCOC(=O)CNc1ccc2c(c1)CCN(CC(=O)NCc1ccccc1)C2Cc1ccc(OC)c(OC)c1 (stereo not shown) [26a, Ethyl 2-({2-[(benzylcarbamoyl)methyl]-1-[(3,4-dimethoxyphenyl)methyl]-1,2,3,4-tetrahydroisoquinolin-6-yl}amino)acetate] | OX1 potency (in words): some activity
> 10000 nM | COc1ccc(CC2c3ccc(NS(C)(=O)=O)cc3CCN2CC(=O)NCc2ccccc2)cc1OC (stereo not shown) [compound 27, N-Benzyl-2-{1-[(3,4-dimethoxyphenyl)methyl]-6-methanesulfonamido-1,2,3,4-tetrahydroisoquinolin-2-yl}acetamide] | OX1 potency (in words): no significant potency
2080 ± 20 nM | COc1ccc(CC2c3ccc(NCCCCOc4ccccc4)cc3CCN2CC(=O)NCc2ccccc2)cc1OC (stereo not shown) [25l, N-Benzyl-2-{1-[(3,4-dimethoxyphenyl)methyl]-6-[(4-phenoxybutyl)amino]-1,2,3,4-tetrahydroisoquinolin-2-yl}acetamide] | 
> 10000 nM | CCCCCCNc1ccc2c(c1)CCN(CC(=O)NCc1ccccc1)C2Cc1ccc(OC)c(OC)c1 (stereo not shown) [25t, N-Benzyl-2-{1-[(3,4-dimethoxyphenyl)methyl]-6-(hexylamino)-1,2,3,4-tetrahydroisoquinolin-2-yl}acetamide] | 
> 10000 nM | CCCCCN(C)c1ccc2c(c1)CCN(CC(=O)NCc1ccccc1)C2Cc1ccc(OC)c(OC)c1 (stereo not shown) [25s, N-Benzyl-2-{1-[(3,4-dimethoxyphenyl)methyl]-6-[methyl(pentyl)amino]-1,2,3,4-tetrahydroisoquinolin-2-yl}acetamide] | 
> 10000 nM | COc1ccc(CC2c3ccc(NCC(=O)N(C)C)cc3CCN2CC(=O)NCc2ccccc2)cc1OC (stereo not shown) [26h, 2-({2-[(Benzylcarbamoyl)methyl]-1-[(3,4-dimethoxyphenyl)methyl]-1,2,3,4-tetrahydroisoquinolin-6-yl}amino)-N,N-dimethylacetamide] | OX1 potency (in words): large decline in potency
> 10000 nM | COc1ccc(CC2c3ccc(NCc4ccncc4)cc3CCN2CC(=O)NCc2ccccc2)cc1OC (stereo not shown) [25m, N-Benzyl-2-{1-[(3,4-dimethoxyphenyl)methyl]-6-[(pyridin-4-ylmethyl)amino]-1,2,3,4-tetrahydroisoquinolin-2-yl}acetamide] | 
1180 ± 80 nM | COc1ccc(CC2c3ccc(NCCCc4ccccc4)cc3CCN2CC(=O)NCc2ccccc2)cc1OC (stereo not shown) [25k, N-Benzyl-2-{1-[(3,4-dimethoxyphenyl)methyl]-6-[(3-phenylpropyl)amino]-1,2,3,4-tetrahydroisoquinolin-2-yl}acetamide] | 
> 10000 nM | CCCCCCN(C)c1ccc2c(c1)CCN(CC(=O)NCc1ccccc1)C2Cc1ccc(OC)c(OC)c1 (stereo not shown) [25u, N-Benzyl-2-{1-[(3,4-dimethoxyphenyl)methyl]-6-[hexyl(methyl)amino]-1,2,3,4-tetrahydroisoquinolin-2-yl}acetamide] | 
2480 ± 6 nM | COc1ccc(CC2c3ccc(N4CCCC4)cc3CCN2CC(=O)NCc2ccccc2)cc1OC (stereo not shown) [25p, N-Benzyl-2-{1-[(3,4-dimethoxyphenyl)methyl]-6-(pyrrolidin-1-yl)-1,2,3,4-tetrahydroisoquinolin-2-yl}acetamide] | OX1 potency (in words): some potency
> 10000 nM | COc1ccc(CC2c3ccc(NCCN4CCCCC4)cc3CCN2CC(=O)NCc2ccccc2)cc1OC (stereo not shown) [25o, N-Benzyl-2-{1-[(3,4-dimethoxyphenyl)methyl]-6-{[2-(piperidin-1-yl)ethyl]amino}-1,2,3,4-tetrahydroisoquinolin-2-yl}acetamide] | OX1 potency (in words): loss of detectable potency
